Laboratory results taken from PMC2962730 (Journal of neurochemistry, 2010).
Changes are numbered by the printed parent chain.

Tests used:
hVAChT Y60H = target: T1, hVAChT Y60H (Homo sapiens, UniProt Q16572, Y60H); assay: [3H]ACh transport; assay type: biochemical
T1 sequence (Q16572 1-532 Y60H): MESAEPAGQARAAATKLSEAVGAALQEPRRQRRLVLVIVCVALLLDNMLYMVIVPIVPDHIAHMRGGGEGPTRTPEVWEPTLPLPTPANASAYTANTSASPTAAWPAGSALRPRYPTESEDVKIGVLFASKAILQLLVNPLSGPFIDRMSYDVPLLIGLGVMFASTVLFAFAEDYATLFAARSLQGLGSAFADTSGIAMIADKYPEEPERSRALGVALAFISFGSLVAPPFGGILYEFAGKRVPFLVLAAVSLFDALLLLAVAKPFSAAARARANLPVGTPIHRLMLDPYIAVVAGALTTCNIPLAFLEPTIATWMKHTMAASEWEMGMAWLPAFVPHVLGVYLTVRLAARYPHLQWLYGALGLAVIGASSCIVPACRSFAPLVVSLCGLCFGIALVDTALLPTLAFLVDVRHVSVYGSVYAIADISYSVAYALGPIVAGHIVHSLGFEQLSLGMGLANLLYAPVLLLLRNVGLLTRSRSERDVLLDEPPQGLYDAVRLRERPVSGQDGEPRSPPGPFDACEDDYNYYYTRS

hVAChT A330V = target: T2, hVAChT A330V (Homo sapiens, UniProt Q16572, A330V); assay: ACh equilibrium binding by competition against [3H]vesamicol
T2 sequence (Q16572 1-532 A330V): T1 sequence (Q16572 1-532 Y60H) with H60Y, A330V

hVAChT C391A = target: T3, hVAChT C391A (Homo sapiens, UniProt Q16572, C391A); assay: as above
T3 sequence (Q16572 1-532 C391A): T1 sequence (Q16572 1-532 Y60H) with H60Y, C391A

hVAChT W325H = target: T4, hVAChT W325H (Homo sapiens, UniProt Q16572, W325H); assay: [3H]vesamicol saturation binding; conditions: pH 7.4
T4 sequence (Q16572 1-532 W325H): T1 sequence (Q16572 1-532 Y60H) with H60Y, W325H

hVAChT A334F = target: T5, hVAChT A334F (Homo sapiens, UniProt Q16572, A334F); assay: [3H]vesamicol saturation binding; conditions: pH 7.4
T5 sequence (Q16572 1-532 A334F): T1 sequence (Q16572 1-532 Y60H) with H60Y, A334F

Compound | Vmax/Bmax, ACh transport normalized to Bmax (hVAChT Y60H; pH 7.4) [min⁻¹] | Km (hVAChT Y60H; read-out: KM, Michaelis-Menten constant for ACh transport, pH 7.4) [µM] | Kd (hVAChT A330V) [mM] | decrease in the fraction of high-affinity binding by ACh (hVAChT A330V; A330V hVAChT vs wild-type) [fold] | FHA, fraction of the ACh sites that have high affinity (hVAChT A330V; A330V hVAChT, pH 7.4) | Kd (hVAChT C391A) [mM] | FHA, fraction of the ACh sites that have high affinity (hVAChT C391A; C391A hVAChT, pH 7.4) | Bmax, maximal specific [3H]vesamicol binding (VAChT expression level) (hVAChT W325H) [pmol/mg] | Bmax, maximal specific [3H]vesamicol binding (VAChT expression level) (hVAChT A334F) [pmol/mg]
CC(=O)OCC[N+](C)(C)C [ACh, acetylcholine] | 3.1 ± 0.6 | 720 ± 530 | 12 ± 5 | 2 | 0.44 ± 0.11 | 10 ± 3 | 0.71 ± 0.07 |  | 
O[C@@H]1CCCC[C@H]1N1CCC(c2ccccc2)CC1 (racemic) [vesamicol, ( )-trans-2-(4-phenylpiperidino)cyclohexanol] |  |  |  |  |  |  |  | 22 ± 1 | 13 ± 1
